Reference: paper PMC11243256 (Molecules, 2024)
Where two headings read alike, the source gives them in different places.

Columns and labels:
Assay in all cases: microscale thermophoresis
Format in all cases: binding
PYL3 = biological target: T1, PYL3 (Arabidopsis thaliana, UniProt Q9SSM7)
T1 construct: NT-647-NHS labelled
T1 sequence (Q9SSM7 1-209): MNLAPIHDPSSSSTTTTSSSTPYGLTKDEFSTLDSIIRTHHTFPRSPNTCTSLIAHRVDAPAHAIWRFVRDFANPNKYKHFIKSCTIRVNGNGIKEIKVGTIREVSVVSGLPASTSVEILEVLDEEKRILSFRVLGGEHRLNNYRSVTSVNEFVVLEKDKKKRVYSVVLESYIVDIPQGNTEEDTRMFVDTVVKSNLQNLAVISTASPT

PYL10 = biological target: T2, PYL10 (Arabidopsis thaliana, UniProt Q8H1R0)
T2 construct: NT-647-NHS labelled; 'monomer PYL10' in the docking section
T2 sequence (Q8H1R0 1-183): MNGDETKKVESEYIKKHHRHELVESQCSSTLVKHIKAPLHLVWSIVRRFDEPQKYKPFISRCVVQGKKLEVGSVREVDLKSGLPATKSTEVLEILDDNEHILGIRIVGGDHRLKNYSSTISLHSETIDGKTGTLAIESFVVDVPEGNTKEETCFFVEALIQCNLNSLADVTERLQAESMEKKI
Excerpt: microscale thermophoresis on PYL10

PYL2 = biological target: T3, PYL2 (Arabidopsis thaliana, UniProt O80992)
T3 construct: NT-647-NHS labelled
T3 sequence (O80992 1-190): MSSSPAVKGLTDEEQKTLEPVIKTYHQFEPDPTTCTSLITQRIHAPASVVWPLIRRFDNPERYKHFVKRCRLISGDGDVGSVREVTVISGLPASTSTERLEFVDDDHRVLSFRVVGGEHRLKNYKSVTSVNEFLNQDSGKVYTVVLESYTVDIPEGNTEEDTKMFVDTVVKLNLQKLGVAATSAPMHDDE
Excerpt: microscale thermophoresis on PYL2

PYL6 = biological target: T4, PYL6 (Arabidopsis thaliana, UniProt Q8S8E3)
T4 construct: NT-647-NHS labelled
T4 sequence (Q8S8E3 1-215): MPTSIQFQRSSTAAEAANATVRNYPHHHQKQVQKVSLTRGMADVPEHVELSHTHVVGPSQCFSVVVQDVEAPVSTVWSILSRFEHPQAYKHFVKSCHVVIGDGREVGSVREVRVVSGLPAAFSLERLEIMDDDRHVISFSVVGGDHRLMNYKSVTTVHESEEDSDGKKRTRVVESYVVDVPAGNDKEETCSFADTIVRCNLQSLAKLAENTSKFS
Excerpt: microscale thermophoresis on PYL6

PYR1 = biological target: T5, PYR1 (Arabidopsis thaliana, UniProt O49686)
T5 construct: NT-647-NHS labelled; 'dimer PYR1' in the docking section
T5 sequence (O49686 1-191): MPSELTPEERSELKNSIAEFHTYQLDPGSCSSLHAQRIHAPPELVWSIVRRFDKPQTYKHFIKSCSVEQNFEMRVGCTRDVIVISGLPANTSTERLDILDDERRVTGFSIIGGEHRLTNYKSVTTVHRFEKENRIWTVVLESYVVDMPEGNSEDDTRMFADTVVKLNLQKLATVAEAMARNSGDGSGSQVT
Excerpt: microscale thermophoresis on PYR1

[1] = PBS, NT-647-NHS-labelled receptor

CC(C)=CCCC(C)CCOc1ccc2c(c1)C(=O)C(C)(C)CC2(O)/C=C/C(C)=C\C(=O)O (centres unmarked) [APA16]
Kd (PYL3): 7.84 ± 0.95 µM | Kd (PYL10): 65 ± 2.76 µM | Kd (PYL2): 5.84 ± 0.24 µM | Kd (PYL6): 2.1 ± 0.31 µM | Kd (PYR1): 53.4 ± 4.71 µM

CC(=C/C(=O)O)/C=C/C1(O)CC(C)(C)C(=O)c2cc(OCCC(C)CC(C)(C)C)ccc21 (centres unmarked) [APA14]
Kd (PYL3): 5.18 ± 0.84 µM | Kd (PYL10): 45.5 ± 2.47 µM | Kd (PYL2): 0.11 ± 0.01 µM | Kd (PYL6): 2.55 ± 0.46 µM | Kd (PYR1): 60.8 ± 9.02 µM

CC(=C/C(=O)O)/C=C/C1(O)CC(C)(C)C(=O)c2cc(OCCCCc3ccccc3)ccc21 (centres unmarked) [APA11]
Kd (PYL3): 3.11 ± 0.4 µM | Kd (PYL10): 17.6 ± 2.11 µM | Kd (PYL2): 0.46 ± 0.09 µM | Kd (PYL6): 0.9 ± 0.22 µM | Kd (PYR1): 59.4 ± 3.41 µM

CC(=C/C(=O)O)/C=C/C1(O)CC(C)(C)C(=O)c2cc(OCCC(C)CCCC(C)C)ccc21 (centres unmarked) [APA15]
Kd (PYL3): 7.95 ± 1.66 µM | Kd (PYL10): 36.3 ± 2.18 µM | Kd (PYL2): 2.04 ± 0.29 µM | Kd (PYL6): 1.99 ± 0.32 µM | Kd (PYR1): 37.9 ± 3.09 µM

CCCCCCOc1ccc2c(c1)C(=O)C(C)(C)CC2(O)/C=C/C(C)=C\C(=O)O (centres unmarked) [APA6]
Kd (PYL3): 4.09 ± 0.65 µM | Kd (PYL10): 44.9 ± 8.09 µM | Kd (PYL2): 2.91 ± 0.17 µM | Kd (PYL6): 1.62 ± 0.17 µM | Kd (PYR1): 121 ± 13.6 µM

COCCOCCOc1ccc2c(c1)C(=O)C(C)(C)CC2(O)/C=C/C(C)=C\C(=O)O (centres unmarked) [APA18]
Kd (PYL3): 9.33 ± 1.39 µM | Kd (PYL10): 37.5 ± 2.83 µM | Kd (PYL2): 0.14 ± 0.02 µM | Kd (PYL6): 4.17 ± 0.93 µM | Kd (PYR1): 73.9 ± 5.28 µM

CC1=CC(=O)CC(C)(C)[C@@]1(O)/C=C/C(C)=C\C(=O)O [compound 1, ABA]
Kd (PYL10): 152 ± 31 µM | Kd (PYL2): 16.2 ± 4.84 µM | Kd (PYL6): 19.5 ± 3.92 µM | Kd (PYR1): 188 ± 29 µM

CCOCCOc1ccc2c(c1)C(=O)C(C)(C)CC2(O)/C=C/C(C)=C\C(=O)O (centres unmarked) [APA17]
Kd (PYL3): 19 ± 2.1 µM | Kd (PYL10): 23.9 ± 2.68 µM | Kd (PYL2): 7.07 ± 0.21 µM | Kd (PYL6): 13.1 ± 1.46 µM | Kd (PYR1): 42.2 ± 6.71 µM

iso-PhABA
Kd (PYL3; [1]): 16.3 ± 2.78 µM | Kd (PYL10; [1]): 92 ± 5.13 µM | Kd (PYL2; [1]): 7.54 ± 2.36 µM | Kd (PYL6; [1]): 6.77 ± 0.32 µM | Kd (PYR1; [1]): 187 ± 22.3 µM
